Reference: patent US20210261642A1, “SOLUBILITY OF GLP-1 PEPTIDE” (Novo Nordisk A/S, priority 2017, published 2021)

Assay: Assay (I): Determination of Solubility (96-well plate, pH 3.0-11.0, organic solvent 0-70% w/w, UV absorption at 280 nm)
Assay type: physicochemical
Conditions: Method 1
Description: Assay (I): Determination of Solubility
96-Well Plate Preparation
96-well plates containing target peptide in a solid form were prepared in one of two ways:
Method 1 (evaporation): Addition of 100 μl stock solution of said peptide at a concentration of 4-6 mg/ml to each well of a 96-well half area plate (150 μl well size). Subsequently the solvent was evaporated by applying a vacuum until the solvent was completely removed.
Method 2 (precipitation): Addition of a certain volume of a stock solution of said peptide containing to each well of a 96-well half area plate followed by the addition of a certain volume of concentrated phosphoric acid to obtain a pH of 4.6 followed by addition of a certain volume of ethanol resulting in a final ethanol concentration of 20% v/v. Subsequently the plate was stored at 4° C. for 1 h and then centrifuged at 4,000 rpm for 20 min. Finally the supernatant was removed. The concentration of the stock solution was chosen in a way that the final amount of peptide after supernatant removal was >0.4 mg per well.
In both cases the stock solution was prepared by adding de-ionized water to a certain amount of powder of said peptide followed by a stepwise addition of small amounts of a concentrated sodium hydroxide solution until said peptide was completely in solution.
To determine solubility of a target peptide at different pH and organic solvent concentrations, two different buffer systems were used in independent experiments to cover the whole range from pH 3.0 to pH 11.0. Buffer system 1 covers pH 3.0-7.5 and buffer system 2 covers pH 7.5-11.0. For each buffer system 96 different solvent compositions were premixed in the following way: • 1. A low pH buffer (adjusted to either pH 3.0 or pH 7.5) and a high pH buffer (adjusted to either pH 7.5 or pH 11.0) were mixed at 8 different ratios to obtain values between pH 3.0 and pH 7.5 or pH 7.5 and pH 11.0, respectively. The total volume after mixing was 300 μl. • 2. 12 different amounts of organic solvent were then added to these buffers to obtain organic solvent (e.g. ethanol) concentrations between 0 and 70% w/w. • 3. Water was then added to obtain a total weight of 1.0 g of solvent in each well.
After preparing the 96 different solvent systems, 100 μl of each system was transferred to the 96-well plate containing the solid form of the target peptide (prepared as described in the section “96-well plate preparation”). The plate was then stored at a given temperature (between 5° C. and 70° C.) for a given time on a rotating shaker set to 400 rpm. At regular time intervals the plate was centrifuged (4,000 rpm for 10 min) and a 10 μl sample was taken from each well. The samples were then analysed by UV absorption at 280 nm for peptide quantification. Peptide concentration results are given as UV absorption at 280 nm of the sample subtracted UV absorption at 280 nm of a well comprising 10 μl water.
The buffers used were as follows: • Buffer system 1 (for the pH range from pH 3.0-7.5)
• Buffer system 2 (for the pH ranae from pH 7.5-11.0)
Solubility of liraglutide was determined using Assay (I) described herein. Liraglutide was prepared using Method 1 (evaporation) or Method 2 (precipitation) as described in subsection “96-well plate preparation”.

- Peptide concentration after 5 min (MeCN 19.1% w/w, pH 8.5, 5° C.): 1.2 mg/mL
- Peptide concentration after 180 min (MeCN 19.1% w/w, pH 8.5, 5° C.): 2.5 mg/mL
- Peptide concentration after 24 h (MeCN 19.1% w/w, pH 8.5, 5° C.): >4.0 mg/mL
- Peptide concentration after 5 min (MeCN 19.1% w/w, pH 9.0, 5° C.): 0.9 mg/mL
- Peptide concentration after 180 min (MeCN 19.1% w/w, pH 9.0, 5° C.): 2.3 mg/mL
- Peptide concentration after 24 h (MeCN 19.1% w/w, pH 9.0, 5° C.): >4.0 mg/mL
- Peptide concentration after 5 min (MeCN 19.1% w/w, pH 9.5, 5° C.): 1.1 mg/mL
- Peptide concentration after 180 min (MeCN 19.1% w/w, pH 9.5, 5° C.): 3.3 mg/mL
- Peptide concentration after 24 h (MeCN 19.1% w/w, pH 9.5, 5° C.): >4.0 mg/mL
- Peptide concentration after 5 min (MeCN 19.1% w/w, pH 10.0, 5° C.): 1.4 mg/mL
- Peptide concentration after 180 min (MeCN 19.1% w/w, pH 10.0, 5° C.): 3.8 mg/mL
- Peptide concentration after 24 h (MeCN 19.1% w/w, pH 10.0, 5° C.): >4.0 mg/mL
- Peptide concentration after 5 min (MeCN 19.1% w/w, pH 10.5, 5° C.): 1.4 mg/mL
- Peptide concentration after 180 min (MeCN 19.1% w/w, pH 10.5, 5° C.): >4.0 mg/mL
- Peptide concentration after 24 h (MeCN 19.1% w/w, pH 10.5, 5° C.): >4.0 mg/mL
- Peptide concentration after 5 min (MeCN 19.1% w/w, pH 11.0, 5° C.): 1.0 mg/mL
- Peptide concentration after 180 min (MeCN 19.1% w/w, pH 11.0, 5° C.): 2.6 mg/mL
- Peptide concentration after 24 h (MeCN 19.1% w/w, pH 11.0, 5° C.): >4.0 mg/mL
- Peptide concentration after 5 min (MeCN 25.5% w/w, pH 8.0, 5° C.): 1.1 mg/mL
- Peptide concentration after 180 min (MeCN 25.5% w/w, pH 8.0, 5° C.): 3.2 mg/mL
- Peptide concentration after 24 h (MeCN 25.5% w/w, pH 8.0, 5° C.): >4.0 mg/mL
- Peptide concentration after 5 min (MeCN 25.5% w/w, pH 8.5, 5° C.): 1.4 mg/mL
- Peptide concentration after 180 min (MeCN 25.5% w/w, pH 8.5, 5° C.): 3.5 mg/mL
- Peptide concentration after 24 h (MeCN 25.5% w/w, pH 8.5, 5° C.): >4.0 mg/mL
- Peptide concentration after 5 min (MeCN 25.5% w/w, pH 9.0, 5° C.): 0.5 mg/mL
- Peptide concentration after 180 min (MeCN 25.5% w/w, pH 9.0, 5° C.): >4.0 mg/mL
- Peptide concentration after 24 h (MeCN 25.5% w/w, pH 9.0, 5° C.): >4.0 mg/mL
- Peptide concentration after 5 min (MeCN 25.5% w/w, pH 9.5, 5° C.): 1.2 mg/mL
- Peptide concentration after 180 min (MeCN 25.5% w/w, pH 9.5, 5° C.): >4.0 mg/mL
- Peptide concentration after 24 h (MeCN 25.5% w/w, pH 9.5, 5° C.): >4.0 mg/mL
- Peptide concentration after 5 min (MeCN 25.5% w/w, pH 10.0, 5° C.): 1.4 mg/mL
- Peptide concentration after 180 min (MeCN 25.5% w/w, pH 10.0, 5° C.): 3.4 mg/mL
- Peptide concentration after 24 h (MeCN 25.5% w/w, pH 10.0, 5° C.): >4.0 mg/mL
- Peptide concentration after 5 min (MeCN 25.5% w/w, pH 10.5, 5° C.): 1.5 mg/mL
- Peptide concentration after 180 min (MeCN 25.5% w/w, pH 10.5, 5° C.): 3.8 mg/mL
- Peptide concentration after 24 h (MeCN 25.5% w/w, pH 10.5, 5° C.): >4.0 mg/mL
- Peptide concentration after 5 min (MeCN 25.5% w/w, pH 11.0, 5° C.): 1.0 mg/mL
- Peptide concentration after 180 min (MeCN 25.5% w/w, pH 11.0, 5° C.): 3.1 mg/mL
- Peptide concentration after 24 h (MeCN 25.5% w/w, pH 11.0, 5° C.): >4.0 mg/mL
- Peptide concentration after 5 min (MeCN 31.8% w/w, pH 8.0, 5° C.): 0.9 mg/mL
- Peptide concentration after 180 min (MeCN 31.8% w/w, pH 8.0, 5° C.): 2.7 mg/mL
- Peptide concentration after 24 h (MeCN 31.8% w/w, pH 8.0, 5° C.): >4.0 mg/mL
- Peptide concentration after 5 min (MeCN 31.8% w/w, pH 8.5, 5° C.): 2.1 mg/mL
- Peptide concentration after 180 min (MeCN 31.8% w/w, pH 8.5, 5° C.): 3.6 mg/mL
- Peptide concentration after 24 h (MeCN 31.8% w/w, pH 8.5, 5° C.): >4.0 mg/mL
- Peptide concentration after 5 min (MeCN 31.8% w/w, pH 9.0, 5° C.): 0.8 mg/mL
- Peptide concentration after 180 min (MeCN 31.8% w/w, pH 9.0, 5° C.): 2.7 mg/mL
- Peptide concentration after 24 h (MeCN 31.8% w/w, pH 9.0, 5° C.): >4.0 mg/mL
- Peptide concentration after 5 min (MeCN 31.8% w/w, pH 9.5, 5° C.): 0.9 mg/mL
- Peptide concentration after 180 min (MeCN 31.8% w/w, pH 9.5, 5° C.): 3.3 mg/mL
- Peptide concentration after 24 h (MeCN 31.8% w/w, pH 9.5, 5° C.): >4.0 mg/mL
Compound: CCCCCCCCCCCCCCCC(=O)N[C@@H](CCC(=O)NCCCC[C@H](NC(=O)[C@H](C)NC(=O)[C@H](C)NC(=O)[C@H](CCC(N)=O)NC(=O)CNC(=O)[C@H](CCC(=O)O)NC(=O)[C@H](CC(C)C)NC(=O)[C@H](Cc1ccc(O)cc1)NC(=O)[C@H](CO)NC(=O)[C@H](CO)NC(=O)[C@@H](NC(=O)[C@H](CC(=O)O)NC(=O)[C@H](CO)NC(=O)[C@@H](NC(=O)[C@H](Cc1ccccc1)NC(=O)[C@@H](NC(=O)CNC(=O)[C@H](CCC(=O)O)NC(=O)[C@H](C)NC(=O)[C@@H](N)Cc1cnc[nH]1)[C@@H](C)O)[C@@H](C)O)C(C)C)C(=O)N[C@@H](CCC(=O)O)C(=O)N[C@@H](Cc1ccccc1)C(=O)N[C@H](C(=O)N[C@@H](C)C(=O)N[C@@H](Cc1c[nH]c2ccccc12)C(=O)N[C@@H](CC(C)C)C(=O)N[C@H](C(=O)N[C@@H](CCCNC(=N)N)C(=O)NCC(=O)N[C@@H](CCCNC(=N)N)C(=O)NCC(=O)O)C(C)C)[C@@H](C)CC)C(=O)O [liraglutide, Arg34,Lys26-(N-epsilon-(gamma-L-glutamyl(N-alfa-hexadecanoyl)))-GLP-1(7-37)]
